PubChem BioAssay (NCI)
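Values below derive from 48-hour exposures of cells grown in 96-well plates, with endpoints linearly interpolated between the two concentrations bracketing the appropriate inhibition level. TGI is the concentration that stops growth completely.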

Legend:
Test in all cases: growth of human tumour cells (NCI), 48 h
[1] = tested on: 786-0 renal
[2] = tested on: A498 renal
[3] = tested on: A549 NSCLC
[4] = tested on: ACHN renal
[5] = tested on: BT-549 breast
[6] = tested on: CAKI-1 renal
[7] = tested on: CCRF-CEM leukemia
[8] = tested on: COLO 205 colon
[9] = tested on: DU-145 prostate
[10] = tested on: EKVX NSCLC
[11] = tested on: HCC-2998 colon
[12] = tested on: HCT-116 colon
[13] = tested on: HCT-15 colon
[14] = tested on: HL-60(TB) leukemia
[15] = tested on: HOP-62 NSCLC
[16] = tested on: HOP-92 NSCLC
[17] = tested on: HS 578T breast
[18] = tested on: HT29 colon
[19] = tested on: IGROV1 ovarian
[20] = tested on: K-562 leukemia
[21] = tested on: KM12 colon
[22] = tested on: LOX IMVI melanoma
[23] = tested on: M14 melanoma
[24] = tested on: MALME-3M melanoma
[25] = tested on: MCF7 breast
[26] = tested on: MDA-MB-231 breast
[27] = tested on: MDA-MB-435
[28] = tested on: MDA-N
[29] = tested on: MOLT-4 leukemia
[30] = tested on: NCI-H226 lung
[31] = tested on: NCI-H23 lung
[32] = tested on: NCI-H460 lung
[33] = tested on: NCI-H522 lung
[34] = tested on: NCI/ADR-RES ovarian
[35] = tested on: OVCAR-3 ovarian
[36] = tested on: OVCAR-4 ovarian
[37] = tested on: OVCAR-5 ovarian
[38] = tested on: OVCAR-8 ovarian
[39] = tested on: PC-3 prostate
[40] = tested on: RPMI-8226 leukemia
[41] = tested on: RXF 393 renal
[42] = tested on: SF-268 CNS
[43] = tested on: SF-295 CNS
[44] = tested on: SF-539 CNS
[45] = tested on: SK-MEL-2 melanoma
[46] = tested on: SK-MEL-28 melanoma
[47] = tested on: SK-MEL-5 melanoma
[48] = tested on: SK-OV-3 ovarian
[49] = tested on: SN12C renal
[50] = tested on: SNB-19 CNS
[51] = tested on: SNB-75 CNS
[52] = tested on: SR leukemia
[53] = tested on: SW-620 colon
[54] = tested on: T-47D breast
[55] = tested on: TK-10 renal
[56] = tested on: U251 CNS
[57] = tested on: UACC-257 melanoma
[58] = tested on: UACC-62 melanoma
[59] = tested on: UO-31 renal

Measured: TGI

Nc1nc(Cl)c(N)c(NCC2(CO)CC2)n1
> 100 µM: all assays above

CC(=N\N)/C(C)=N/N=C(C)/C(C)=N/N
not listed: [20] | [29] | [58]
> 100 µM: all other assays above
